Test [1] has as its system MDA-MB-231 cells. The test is described as follows: Cell viability WST-1 assay, MDA-MB-231. It is filed as cell-based. The conditions noted are these: Homo sapiens, WST-1, 24 h; for viability at 3000 µM: MDA-MB-231, 24 h, 3000 µmol/L, read-out: percentage of viability of MDA-MB-231 cells. On the procedure:
The viability of MCF-7 and MDA-MB-231 cells was determined using a colorimetric WST-1 assay (Takara, Takara Bio Europe, Saint-Germain-en-Laye, France). Both cell lines were seeded at a density of 1 × 10^4 per well on 96-well plates and were cultured for 24 h to obtain 70% confluence. The following day, the cells were treated with various concentrations of compounds 1–9 diluted in the cell culture medium ([…]). The cells were incubated with tested compounds or pure medium (control) for 24 h (37 °C, 5% CO2). Afterwards, the cells were washed with 100 μL of culture medium, and then, the reagent dissolved in the medium was added (100 μL). The plates were incubated at the standard condition for 1.5 h, and the absorbance was read at 450 nm using a microplate reader (iMARK, Bio-Rad, Bio-Rad Laboratories Inc., Hercules, CA, USA). […] The results of samples treated with the test compounds were expressed as a percentage of the control samples. The data were presented as mean ± standard deviation (SD), n = 8. IC50 values (the concentration of the tested compound that inhibited cell growth by 50%) were calculated using a concentration-response curve (GraphPad Prism, Software, San Diego, CA, USA).
The concentrations contributing to the 50% of cell growth inhibition (IC50) were calculated using nonlinear regression analysis (fitting the curve to log (concentration) vs. cellular response).
Background: Formazan colour is commonly taken as a measure of viable cells.

A further test relates to MCF-7 cells. Description: Intracellular GSH and GSSG, MCF-7. It is filed as cell-based, human. On the procedure: (§1) The quantitative determination of glutathione and glutathione disulfide was performed using the enzymatic recycling method according to the protocol of Rahman. The cells were seeded at a density of 2 × 10^5 per well in a 6-well plate and cultured for 48 h. Then, the cells were treated with tested compounds 1, 4 and 7 at their respective ¼ and ½ IC50 values for MCF-7 and MDA-MB-231 cells. Additionally, controls with pure medium, AAPH (2,2′-Azobis(2-methylpropionamidine) dihydro-chloride, Sigma Aldrich, St. Louis, MO, USA) and ascorbic acid (Polish Chemical Reagents, Poland) were performed. The cells were incubated with compounds for another 24 h, then washed twice with 2 mL of cold, Ca^2+-/Mg^2+-free PBS (Biomed Lublin, Lublin, Poland). The cells were harvested using 1-mL accutase (Sigma Aldrich, St. Louis, MO, USA), and the wells were washed with 1 mL of cold growth medium. The cells were transferred to prechilled 2.0-mL Eppendorf tubes and centrifuged at 1000× g for 5 min at 4 °C. The supernatant was discarded, the pellets were resuspended in 1 mL of cold PBS, the number of cells was determined in each sample and the cellular suspension was centrifuged again. PBS was discarded, and the pellets were stored covered with 30-µL PBS at –70 °C. The following day, the cells were suspended in 0.5 mL of ice-cold extraction buffer (0.1% Triton-X (Polish Chemical Reagents, Gliwice, Poland) and 0.6% sulfosalicylic acid (Sigma Aldrich) in a potassium phosphate buffer with EDTA (Sigma Aldrich)) and sonicated in icy water for 3 min with vortexing every 30 s. The cells were frozen once again at −80 °C, defrosted on ice and frozen once again. Following the second freeze–thaw cycle, the cells were centrifuged at 1500× g for 5 min at 4 °C, and then, immediately, the supernatant was transferred to prechilled Eppendorf tubes. The samples were divided into two parts: one was used to measure GSH, and the other one was derivatized by an addition of 4 µL of 2-vinylpyridine (diluted 1:10 with phosphate buffer) (Sigma Aldrich, St. Louis, MO, USA) to determine the GSSG content.
(§2) GSH measurements included an addition of 20 µL of the tested sample, blank or GSH standard, 120 µL of the mixture of an equal volume of DTNB solution (2 mg dissolved in 3 mL of phosphate buffer, Sigma Aldrich) and glutathione reductase (10 U in 3 mL of phosphate buffer, Sigma Aldrich, St. Louis, MO, USA) and 30 s of incubation to allow the conversion of GSSG to GSH. The final step included the addition of 60 µL of β-NADPH (2 mg dissolved in 3 mL of phosphate buffer, Sigma Aldrich). The absorbance was read immediately at 415 nm in a microplate reader (Bio-Rad), and the measurements were taken every 30 s for 2 min (6 readings in total). The amount of GSH was calculated on the basis of the calibration curve prepared using GSH (Sigma Aldrich, St. Louis, MO, USA) at concentrations ranging from 0.040 to 2.6 nmol/mL.
(§3) The quantification of GSSG in the test samples was performed according to the same procedure as GSH. The samples treated with 2-VP were incubated for one hour at room temperature, and then, 20 µL of the tested sample was analyzed using the same reagents which were applied in the GSH measurements. The amount of GSSG was calculated on the basis of the calibration curve, prepared using GSSG (Sigma Aldrich) at concentrations of 0.040–2.6 nmol/mL. The results are presented as mean ± SD, n = 6–8 and expressed as nmol per […].

Test [2] has as its system MDA-MB-231 cells. The test is described as follows: Intracellular GSH and GSSG, MDA-MB-231. It is filed as cell-based, human. As to the method: as §1, §2, §3

Consider three compounds from publication PMC7177633, “Effective Cellular Transport of Ortho-Halogenated Sulfonamide Derivatives of Metformin Is Related to Improved Antiproliferative Activity and Apoptosis Induction in MCF-7 Cells” (International Journal of Molecular Sciences, 2020).

As a reminder, the viability is a per cent measure of how many cells are alive, often set against a control. One may read the IC50 as the concentration that gives 50% inhibition.

The structures appear in SMILES notation.

Turning to `CN(C)C(=N)N=C(N)NS(=O)(=O)c1ccccc1Cl` [Compound 1], the viability at 3000 µM in the test with MDA-MB-231 cells [1] was roughly 60%. The GSH in the test with MCF-7 cells (MCF-7, 1/2 × IC50, 24 h) was determined as 167.5 ± 5.1 nmol/1 mln Cells; in the test with MCF-7 cells (MCF-7, 1/4 × IC50, 24 h) it was 183.1 ± 8.9 nmol/1 mln Cells; in the test on MDA-MB-231 cells [2] (MDA-MB-231, 1/2 × IC50, 24 h), 242.0 ± 47.0 nmol/1 mln Cells; in the test with MDA-MB-231 cells [2] (MDA-MB-231, 1/4 × IC50, 24 h), 238.0 ± 4.3 nmol/1 mln Cells. Further, the “GSH:GSSG Ratio” value with MCF-7 cells (MCF-7, 1/2 × IC50, 24 h) came out at 22.6; in the test with MCF-7 cells (MCF-7, 1/4 × IC50, 24 h), 20.1; with MDA-MB-231 cells [2] (MDA-MB-231, 1/2 × IC50, 24 h), 12.1; with MDA-MB-231 cells [2] (MDA-MB-231, 1/4 × IC50, 24 h) it was 12.2. Moreover, the GSSG in the test on MCF-7 cells (MCF-7, 1/2 × IC50, 24 h) is reported as 7.4 ± 1.8 nmol/1 mln Cells; with MCF-7 cells (MCF-7, 1/4 × IC50, 24 h) it was 9.1 ± 3.9 nmol/1 mln Cells; in the test on MDA-MB-231 cells [2] (MDA-MB-231, 1/2 × IC50, 24 h), 19.9 ± 2.0 nmol/1 mln Cells; in the test with MDA-MB-231 cells [2] (MDA-MB-231, 1/4 × IC50, 24 h), 19.5 ± 2.2 nmol/1 mln Cells.

Consider `CN(C)C(=N)N=C(N)NS(=O)(=O)c1ccccc1Br` [Compound 4], for which, in the test with MDA-MB-231 cells [1], the viability at 3000 µM was roughly 56.4%. Moreover, the GSH with MCF-7 cells (MCF-7, 1/2 × IC50, 24 h) was 148.5 ± 4.8 nmol/1 mln Cells; in the test on MCF-7 cells (MCF-7, 1/4 × IC50, 24 h), 165.4 ± 9.6 nmol/1 mln Cells; with MDA-MB-231 cells [2] (MDA-MB-231, 1/2 × IC50, 24 h) it was 242.1 ± 13.7 nmol/1 mln Cells; in the test on MDA-MB-231 cells [2] (MDA-MB-231, 1/4 × IC50, 24 h), 250.2 ± 12.1 nmol/1 mln Cells. Moreover, the “GSH:GSSG Ratio” value came to 24.0 in the test on MCF-7 cells (MCF-7, 1/2 × IC50, 24 h); 19.2 with MCF-7 cells (MCF-7, 1/4 × IC50, 24 h); 12.3 with MDA-MB-231 cells [2] (MDA-MB-231, 1/2 × IC50, 24 h); 12.5 with MDA-MB-231 cells [2] (MDA-MB-231, 1/4 × IC50, 24 h). For the same compound, the GSSG in the test with MCF-7 cells (MCF-7, 1/2 × IC50, 24 h) is listed as 6.2 ± 0.7 nmol/1 mln Cells; in the test with MCF-7 cells (MCF-7, 1/4 × IC50, 24 h) it was 8.6 ± 0.7 nmol/1 mln Cells; in the test with MDA-MB-231 cells [2] (MDA-MB-231, 1/2 × IC50, 24 h), 19.6 ± 1.4 nmol/1 mln Cells; in the test on MDA-MB-231 cells [2] (MDA-MB-231, 1/4 × IC50, 24 h) it was 19.9 ± 2.3 nmol/1 mln Cells.

In the case of `CN(C)C(=N)N=C(N)NS(=O)(=O)c1ccccc1F` [Compound 7], the IC50 with MDA-MB-231 cells [1] (MDA-MB-231, mean ± SD (n = 6–8), read-out: IC50 inhibition of MDA-MB-231 cells' viability) stood at 2590 ± 150 µM. The GSH turned out to be 169.0 ± 6.0 nmol/1 mln Cells in the test on MCF-7 cells (MCF-7, 1/2 × IC50, 24 h); 166.8 ± 12.8 nmol/1 mln Cells in the test on MCF-7 cells (MCF-7, 1/4 × IC50, 24 h); 248.7 ± 13.3 nmol/1 mln Cells in the test with MDA-MB-231 cells [2] (MDA-MB-231, 1/2 × IC50, 24 h); 265.0 ± 15.9 nmol/1 mln Cells with MDA-MB-231 cells [2] (MDA-MB-231, 1/4 × IC50, 24 h). Moreover, the “GSH:GSSG Ratio” value in the test on MCF-7 cells (MCF-7, 1/2 × IC50, 24 h) was 15.9; with MCF-7 cells (MCF-7, 1/4 × IC50, 24 h), 21.2; in the test with MDA-MB-231 cells [2] (MDA-MB-231, 1/2 × IC50, 24 h) it was 11.3; with MDA-MB-231 cells [2] (MDA-MB-231, 1/4 × IC50, 24 h) it was 11.8. Moreover, the GSSG in the test with MCF-7 cells (MCF-7, 1/2 × IC50, 24 h) worked out at 10.6 ± 0.4 nmol/1 mln Cells; in the test on MCF-7 cells (MCF-7, 1/4 × IC50, 24 h), 7.9 ± 0.9 nmol/1 mln Cells; with MDA-MB-231 cells [2] (MDA-MB-231, 1/2 × IC50, 24 h) it was 21.9 ± 2.9 nmol/1 mln Cells; in the test with MDA-MB-231 cells [2] (MDA-MB-231, 1/4 × IC50, 24 h) it was 22.5 ± 0.9 nmol/1 mln Cells.
